In patent US11001561B2, “Pyrimidinone derivatives as SHP2 antagonists” (MERCK PATENT GMBH, priority 2019, dated 2021) one finds IC50 data, which are given here for 24 compounds.

Each structure is given as a SMILES string. A value given as a limit tells only on which side of the number the result lay.

In one experiment the target is Full length SHP2 protein (Recombinant Human SHP-2) (Homo sapiens (Human), UniProt Q06124). Briefly: SHP2 biochemical assay (DiFMUP substrate, activating peptide IRSI_2pY). The settings on record: SHP-2 biochemical assay IC50 (μM), activating peptide IRSI_2pY 140 nM, DiFMUP, 60 min.
Full length SHP2 protein (Recombinant Human SHP-2), sequence (Q06124 2-593): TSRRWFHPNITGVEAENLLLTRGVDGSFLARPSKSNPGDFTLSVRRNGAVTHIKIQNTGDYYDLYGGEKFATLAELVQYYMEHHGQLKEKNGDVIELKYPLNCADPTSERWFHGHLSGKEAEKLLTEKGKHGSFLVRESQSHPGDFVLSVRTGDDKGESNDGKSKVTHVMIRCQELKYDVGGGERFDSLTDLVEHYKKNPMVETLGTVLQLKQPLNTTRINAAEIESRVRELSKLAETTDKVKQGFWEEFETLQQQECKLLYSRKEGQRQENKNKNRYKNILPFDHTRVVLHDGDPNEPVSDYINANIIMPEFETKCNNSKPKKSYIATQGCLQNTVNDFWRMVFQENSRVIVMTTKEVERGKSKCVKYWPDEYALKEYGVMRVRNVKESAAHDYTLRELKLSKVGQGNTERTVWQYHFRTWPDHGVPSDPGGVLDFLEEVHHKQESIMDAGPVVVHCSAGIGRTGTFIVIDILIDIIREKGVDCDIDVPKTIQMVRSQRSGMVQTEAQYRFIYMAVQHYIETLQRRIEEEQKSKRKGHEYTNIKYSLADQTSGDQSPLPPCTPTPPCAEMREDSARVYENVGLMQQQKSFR
Protocol: The inhibition of SHP2 by compounds of the invention was monitored using the surrogate substrate DiFMUP after protein activation by a peptide bearing two appropriately spaced phosphotyrosine. […] The generation of the DiFMU product by activated SHP2 was monitored through Fluorescence measurement with a PerkinElmer Envision reader. The inhibitor dose response curves were analyzed with Genedata Screener.
Take `Cc1nc(C2=CC[C@@](C)(N)CC2)cc(=O)n1-c1cccc(Cl)c1Cl` (racemic) [Compound 6b, (+/−)-(3P)-6-[(4S)-4-amino-4-methylcyclohex-1-en-1-yl]-3-(2,3-dichlorophenyl)-2-methyl-3,4-dihydropyrimidin-4-one]: the IC50 was above 10 µM.

Take `Cc1nc(N2CCC(C)([C@H](O)CN)CC2)cc(=O)n1-c1cccc(Cl)c1Cl` (racemic) [Compound 57a, (+/−)-(3M)-6-{4-[(1S)-2-amino-1-hydroxyethyl]-4-methylpiperidin-1-yl}-3-(2,3-dichlorophenyl)-2-methyl-3,4-dihydropyrimidin-4-one]: the IC50 was above 10 µM. Same read-out and setting: for `[2H]C([2H])([2H])c1c(N2CCC3(CC2)CO[C@@H](C)[C@H]3N)nc(C)n(-c2cccc(Cl)c2Cl)c1=O` (single isomer, unassigned) [Compound 63a] the value was 6 µM; for `Cc1nc(N2CCC3(CC2)CO[C@@H](C)[C@H]3N)nc(=O)n1-c1cccc(Cl)c1Cl` (single isomer, unassigned) [Compound 37b], above 10 µM. Take `Cc1nc(N2CCC[C@](N)(CC(F)F)CC2)cc(=O)n1-c1cccc(Cl)c1Cl` (racemic) [Compound 58b, (+/−)-(3P)-6-4-[(1R)-4-amino-4-(2,2-difluoroethyl)-azepan-1-yl]-3-(2,3-dichlorophenyl)-2-methyl-3,4-dihydropyrimidin-4-one]: the IC50 was 1.3 µM.

Consider `Cc1nc(N2CCC(C)(N3CC[C@H](O)C3)CC2)cc(=O)n1-c1cccc(Cl)c1Cl` (racemic) [Compound 72b, (+/−)-(3M)-3-(2,3-dichlorophenyl)-6-{4-[(3R)-3-hydroxy-pyrrolidin-1-yl]-4-methylpiperidin-1-yl}-2-methyl-3,4-dihydropyrimidin-4-one], for which the IC50 was determined as 6.4 µM. In the case of `Cc1c(N2CCC3(CC2)Oc2ncccc2[C@H]3N)nc(C)n(-c2cccc(Cl)c2Cl)c1=O` [Compound 79a, (3M)-6-[(3R)-3-amino-3H-spiro[furo[2,3-b]pyridine-2,4′-piperidin]-1′-yl]-3-(2,3-dichlorophenyl)-2,5-dimethylpyrimidin-4-one], the IC50 came out at 0.3 µM. Same read-out and setting: for `Cc1nc(N(C)[C@H]2CC[C@@](C)(N)CC2)cc(=O)n1-c1cccc(Cl)c1Cl` (single isomer, unassigned) [Compound 71b, 3-(2,3-dichlorophenyl)-2-methyl-6-{methyl[(cis)-4-amino-4-methylcyclohexyl]amino}-3,4-dihydropyrimidin-4-one] the value was 20 µM; for `Cc1c(N2CCC3(CC2)Cc2ccccc2[C@@H]3N)nc(C)n(-c2cccc(Cl)c2Cl)c1=O` (atropisomer, axis not shown) [Compound 74d, (3P)-6-[(1R)-1-amino-1,3-dihydrospiro[indene-2,4′-piperidin]-1′-yl]-3-(2,3-dichlorophenyl)-2,5-dimethyl-3,4-dihydropyrimidin-4-one], above 10 µM.

Still in this experiment, the particulars now being: activating peptide IRSI_2pY 140 nM, DiFMUP, 60 min; read-out: SHP-2 biochemical assay IC50.
Consider `Cc1nc(N2CCC3(CC2)CO[C@@H](C)[C@H]3N)nc(=O)n1-c1cccc(Cl)c1Cl` (single isomer, unassigned) [Compound 37a], for which the IC50 was found to be 1.1 µM. Take `Cc1ccc(Cl)c(Cl)c1-n1c(C)nc(N2CCC3(CC2)CO[C@@H](C)[C@H]3N)c(C)c1=O` [Compound 102, 6-((3S,4S)-4-Amino-3-methyl-2-oxa-8-aza-spiro[4.5]dec-8-yl)-3-(2,3-dichloro-6-methyl-phenyl)-2,5-dimethyl-3H-pyrimidin-4-one]: the IC50 was determined as 7.3 µM. Take `Cc1c(N2CCC(C)(N)CC2)nc(C)n(-c2ccc3ccccc3c2Cl)c1=O` [Compound 48, 6-(4-Amino-4-methyl-piperidin-1-yl)-3-(1-chloro-naphthalen-2-yl)-2,5-dimethyl-3H-pyrimidin-4-one]: the IC50 was found to be 18 µM. Still for that read-out and setting: for `COc1ccc(-n2c(C)nc(N3CCC4(CC3)CO[C@@H](C)[C@H]4N)c(C)c2=O)c(Cl)c1Cl` [Compound 98, 6-((3S,4S)-4-Amino-3-methyl-2-oxa-8-aza-spiro[4.5]dec-8-yl)-3-(2,3-dichloro-4-methoxy-phenyl)-2,5-dimethyl-3H-pyrimidin-4-one] the value was 0.5 µM. The same measure, in the same setting: for `Cc1nc(N2CC3CC4CC(C4(C)C)C3(CN)C2)cc(=O)n1-c1cccc(Cl)c1Cl` (stereo not shown) [Compound 60, 6-[2-(aminomethyl)-9,9-dimethyl-4-azatricyclo[6.1.1.0^2,6]decan-4-yl]-3-(2,3-dichlorophenyl)-2-methyl-3,4-dihydropyrimidin-4-one] the value was 10 µM.

Turning to `Cc1c(N2CCO[C@H](CN)C2)nc(C)n(-c2cccc(Cl)c2Cl)c1=O` [Compound 92, 6-[(2R)-2-(aminomethyl)morpholin-4-yl]-3-(2,3-dichlorophenyl)-2,5-dimethyl-3,4-dihydropyrimidin-4-one], the IC50 came out at 16 µM. For the compound `Cc1nc(N2CCC(O)(CN)CC2)cc(=O)n1-c1cccc(Cl)c1Cl` [Compound 28, 6-[4-(aminomethyl)-4-hydroxypiperidin-1-yl]-3-(2,3-dichlorophenyl)-2-methyl-3,4-dihydropyrimidin-4-one], the IC50 was 3.5 µM.

As to `Cc1nc(N2C[C@H]3COCC[C@@]3(CN)C2)cc(=O)n1-c1cccc(Cl)c1Cl` (racemic) [Compound 19, (+/−)-6-[(3aS,7aR)-7a-(aminomethyl)-octahydropyrano[3,4-c]pyrrol-2-yl]-3-(2,3-dichlorophenyl)-2-methyl-3,4-dihydropyrimidin-4-one], the IC50 was found to be 4 µM. Regarding `Cc1nc(N2CCC3(CC2)CO[C@@H](C)[C@H]3N)cc(=O)n1-c1c(F)ccc(Cl)c1Cl` (single isomer, unassigned) [Compound 32a], the IC50 was above 10 µM. Regarding `Cc1c(N2CCC(C)(CN)CC2)nc(N)n(-c2cccc(Cl)c2Cl)c1=O` [Compound 114, 2-Amino-6-(4-aminomethyl-4-methyl-piperidin-1-yl)-3-(2,3-dichloro-phenyl)-5-methyl-3H-pyrimidin-4-one], the IC50 came to 1.4 µM. The same measure, in the same setting: for `Cc1nc(N2CCC3(CC2)CO[C@@H](C)[C@H]3N)c(C(C)C)c(=O)n1-c1cccc(Cl)c1Cl` (atropisomer, axis not shown) [Compound 49a, (3P)-6-[(3S,4S)-4-amino-3-methyl-2-oxa-8-azaspiro[4.5]decan-8-yl]-3-(2,3-dichlorophenyl)-2-methyl-5-(propan-2-yl)-3,4-dihydropyrimidin-4-one] the value was above 10 µM; for `Cc1nc(N2CCC3(CC2)Cc2ccccc2[C@H]3N)cc(=O)n1-c1cccc(Cl)c1Cl` (single isomer, unassigned) [Compound 119a], 0.27 µM.

In another experiment the test system is pERK1/2 in KYSE520 cells. The experiment can be described thus: p-Erk cellular assay in KYSE520 (Mesoscale). The class given is cell-based. The note with it: 2 h, read-out: pERK1/2 in Cell KYSE520 IC50. On the procedure: p-Erk Cellular Assay in KYSE520: The effect of SHP2 inhibitors on pERK level was assessed using phospho-specific antibody using Mesoscale quantification platform. For measuring change in pERK levels using mesoscale, 30,000 cells of KYSE520 cells were plated in 96-well tissue culture treated plate in 175 μl volume of media. After an overnight incubation at 37° C., various SHP2 inhibitors were added in different concentration to each well maintaining duplicate wells across plates and incubated with compounds for 2 h at 37° C. followed by a wash with ice cold PBS buffer. The cells were then lysed in lysis buffer and processed and analyzed for p-ERK/ERK as per manufacturer's instructions (Mesoscale discovery, cat No. […]-3).
On to `Cc1c(N2CCC3(CC2)c2ncccc2C[C@H]3N)nc(C)n(-c2cccc(Cl)c2Cl)c1=O` [Compound 75, (3M)-6-[(6R)-6-amino-5,6-dihydrospiro[cyclopenta[b]pyridine-7,4′-piperidin]-1′-yl]-3-(2,3-dichlorophenyl)-2,5-dimethyl-3,4-dihydropyrimidin-4-one], for which the IC50 amounted to 0.824 µM.

Staying with this experiment, now noted: Homo sapiens, KYSE-520, 2 h, read-out: pERK1/2 in Cell KYSE520 IC50.
On to `Cc1nc(N2CCC3(CC2)CO[C@@H](C)[C@H]3N)nc(=O)n1-c1cccc(Cl)c1Cl` (single isomer, unassigned) [Compound 37a], for which the IC50 stood at 11.3 µM. As for `Cc1nc(N2CCC(C)(N)CC2)cc(=O)n1-c1cccc(Cl)c1Cl` [Compound 2, 6-(4-amino-4-methylpiperidin-1-yl)-3-(2,3-dichlorophenyl)-2-methyl-3,4-dihydropyrimidin-4-one], the IC50 was 5.57 µM. Still for that read-out and setting: next, `Cc1nc(N2CCC(C)(N)CC2)cc(=O)n1-c1cccc(Cl)c1Cl` (single isomer, unassigned) [Compound 2b, (3M)-6-(4-amino-4-methylpiperidin-1-yl)-3-(2,3-dichlorophenyl)-2-methyl-3,4-dihydropyrimidin-4-one]: 4.25 µM.
